Results published in patent US9708340B2, “Urea derivatives and their use as fatty-acid binding protein (FABP) inhibitors” (Hoffmann-La Roche Inc., priority 2013, dated 2017).
Where two headings read alike, the source gives them in different places.

Key:
human FABP5 (huFABP5) = human FABP5 (huFABP5) (Homo sapiens (Human), UniProt Q01469); assay: Tb TR-FRET assay, binding of Bodipy labeled fatty acid to His6 tagged huFABP5; settings: read-out: IC50 h-fabp5-ecoli-r
human FABP4 (huFABP4) = human FABP4 (huFABP4) (Homo sapiens (Human), UniProt P15090); assay: Tb TR-FRET assay, binding of Bodipy labeled fatty acid to His6 tagged huFABP4; settings: read-out: IC50 h-fabp4-ecoli-r
[1] = 50 nM FABP protein, […] Bodipy labeled fatty acid

Chain of human FABP4 (huFABP4) (P15090 whole entry): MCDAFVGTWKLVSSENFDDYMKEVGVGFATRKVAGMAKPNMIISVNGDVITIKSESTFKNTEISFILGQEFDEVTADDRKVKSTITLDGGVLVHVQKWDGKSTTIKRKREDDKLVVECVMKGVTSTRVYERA
Chain of human FABP5 (huFABP5) (Q01469 whole entry): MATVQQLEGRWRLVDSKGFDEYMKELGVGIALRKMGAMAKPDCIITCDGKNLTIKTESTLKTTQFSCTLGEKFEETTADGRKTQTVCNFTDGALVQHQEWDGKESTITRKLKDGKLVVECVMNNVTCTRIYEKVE

Structure (SMILES)	IC50 (human FABP5 (huFABP5)) [µM]	IC50 (human FABP4 (huFABP4)) [µM]	IC50 (human FABP5 (huFABP5); [1]) [µM]	IC50 (human FABP4 (huFABP4); [1]) [µM]
O=C(O)[C@@H]1[C@H]2C[C@H]2CN1C(=O)Nc1ccccc1-c1ccccc1 (racemic) [Example 9, (1SR,2SR,5RS)-3-(Biphenyl-2-ylcarbamoyl)-3-aza-bicyclo[3.1.0]hexane-2-carboxylic acid]	> 50	9.1		
O=C(O)C1CCCCN1C(=O)Nc1ccccc1-c1ccccc1 (stereo not drawn) [Example 1, 1-(Biphenyl-2-ylcarbamoyl)-piperidine-2-carboxylic acid]			> 50	8.06
O=C(O)[C@H]1CCCN1C(=O)Nc1ccc(Cl)cc1-c1ccccc1 [Example 2, (R)-1-(5-chlorobiphenyl-2-ylcarbamoyl)pyrrolidine-2-carboxylic acid]			21	2.04
O=C(O)[C@H]1CCCN1C(=O)Nc1ccccc1Oc1ccccc1 [Example 3, (R)-1-(2-phenoxyphenylcarbamoyl)pyrrolidine-2-carboxylic acid]			> 50	11.7
O=C(O)[C@H]1CCCN1C(=O)Nc1ccccc1Cc1ccccc1 [Example 4, (R)-1-(2-benzylphenylcarbamoyl)pyrrolidine-2-carboxylic acid]			> 50	3.34
O=C(O)[C@H]1CCCN1C(=O)Nc1cc(Cl)ccc1Oc1ccccc1 [Example 5, (R)-1-(5-chloro-2-phenoxyphenylcarbamoyl)pyrrolidine-2-carboxylic acid]			> 50	7.41
O=C(Nc1ccccc1-c1ccccc1)N1CCCC1(C(=O)O)c1ccccc1 (stereo not drawn) [Example 6, 1-(Biphenyl-2-ylcarbamoyl)-2-phenyl-pyrrolidine-2-carboxylic acid]			> 50	0.62
O=C(O)C1SCCN1C(=O)Nc1ccccc1-c1ccccc1 (stereo not drawn) [Example 7, 3-(Biphenyl-2-ylcarbamoyl)-thiazolidine-2-carboxylic acid]			> 50	9.82
O=C(O)[C@H]1CSCN1C(=O)Nc1ccccc1-c1ccccc1 [Example 8, (S)-3-(Biphenyl-2-ylcarbamoyl)-thiazolidine-4-carboxylic acid]			> 50	0.33
O=C(O)[C@H]1CCCN1C(=O)Nc1cc(Cl)ccc1-c1ccccc1 [Example 10, (R)-1-(4-chlorobiphenyl-2-ylcarbamoyl)pyrrolidine-2-carboxylic acid]			> 1.44	0.12
O=C(O)[C@H]1CCCN1C(=O)Nc1c(F)cccc1-c1ccccc1 [Example 11, (R)-1-(3-fluorobiphenyl-2-ylcarbamoyl)pyrrolidine-2-carboxylic acid]			> 50	0.86
O=C(O)[C@H]1CCN1C(=O)Nc1cc(Cl)ccc1-c1ccccc1 [Example 12, (R)-1-(4-chlorobiphenyl-2-ylcarbamoyl)azetidine-2-carboxylic acid]			> 50	0.02
O=C(O)[C@H]1CCCN1C(=O)Nc1cc(C(F)(F)F)ccc1-c1ccccc1 [Example 13, (R)-1-(4-(trifluoromethyl)biphenyl-2-ylcarbamoyl)pyrrolidine-2-carboxylic acid]			> 50	3.95
O=C(O)[C@H]1CCCN1C(=O)Nc1cc(F)cc(F)c1-c1ccccc1 [Example 14, (R)-1-(4,6-difluorobiphenyl-2-ylcarbamoyl)pyrrolidine-2-carboxylic acid]			> 6.86	0.31
CC1(C(=O)O)CCCN1C(=O)Nc1ccccc1-c1ccccc1 (stereo not drawn) [Example 15, 1-(biphenyl-2-ylcarbamoyl)-2-methylpyrrolidine-2-carboxylic acid]			> 50	0.86
O=C(O)[C@H]1CCCN1C(=O)Nc1cc(F)ccc1-c1ccccc1 [Example 16, (R)-1-(4-fluorobiphenyl-2-ylcarbamoyl)pyrrolidine-2-carboxylic acid]			> 50	1.07
O=C(O)[C@H]1CCCN1C(=O)Nc1cc(OC(F)(F)F)ccc1-c1ccccc1 [Example 17, (R)-1-(4-(trifluoromethoxy)biphenyl-2-ylcarbamoyl)pyrrolidine-2-carboxylic acid]			> 50	5.71
O=C(O)[C@H]1CCCN1C(=O)Nc1cc(Cl)cc(-c2ccccc2)c1-c1ccccc1 [Example 19, (R)-1-(5′-Chloro-[1,1′;2′,1″]terphenyl-3′-ylcarbamoyl)-pyrrolidine-2-carboxylic acid]			1.22	0.5
N#Cc1ccc(-c2ccccc2)c(NC(=O)N2CCC[C@@H]2C(=O)O)c1 [Example 20, (R)-1-(4-cyanobiphenyl-2-ylcarbamoyl)pyrrolidine-2-carboxylic acid]			> 50	10.5
O=C(O)[C@H]1CCCN1C(=O)Nc1c(-c2ccccc2)sc2ccccc12 [Example 21, (R)-1-(2-phenylbenzo[b]thiophen-3-ylcarbamoyl)pyrrolidine-2-carboxylic acid]			> 50	0.67
O=C(O)[C@H]1CCCN1C(=O)Nc1c(-c2ccccc2)sc2ncccc12 [Example 22, (R)-1-(2-phenylthieno[2,3-b]pyridin-3-ylcarbamoyl)pyrrolidine-2-carboxylic acid]			> 50	1.66
C=CCc1cc(Cl)cc(NC(=O)N2CCC[C@@H]2C(=O)O)c1-c1ccccc1 [Example 23, (R)-1-(6-allyl-4-chlorobiphenyl-2-ylcarbamoyl)pyrrolidine-2-carboxylic acid]			1.29	0.11
O=C(O)[C@H]1CCCN1C(=O)Nc1ccsc1-c1ccccc1 [Example 24, (R)-1-(2-phenylthiophen-3-ylcarbamoyl)pyrrolidine-2-carboxylic acid]			> 50	1.67
N#Cc1cc(Cl)cc(NC(=O)N2CCC[C@@H]2C(=O)O)c1-c1ccccc1 [Example 25, (R)-1-(4-chloro-6-cyanobiphenyl-2-ylcarbamoyl)pyrrolidine-2-carboxylic acid]			15	0.19
O=C(O)[C@H]1CCCN1C(=O)Nc1cc(Cl)cc(C2=CCCCC2)c1-c1ccccc1 [Example 26, (R)-1-[4-chloro-6-(cyclohexen-1-yl)-biphenyl-2-ylcarbamoyl]pyrrolidine-2-carboxylic acid]			0.07	0.53
O=C(O)[C@@H]1CCN1C(=O)Nc1cc(Cl)ccc1-c1ccccc1 [Example 27, (S)-1-(4-chlorobiphenyl-2-ylcarbamoyl)azetidine-2-carboxylic acid]			> 50	1.22
O=C(O)[C@H]1CCN1C(=O)Nc1ccccc1-c1ccccc1 [Example 28, (R)-1-(biphenyl-2-ylcarbamoyl)azetidine-2-carboxylic acid]			> 50	0.08
O=C(O)[C@H]1CCN1C(=O)Nc1cc(Cl)ccc1-c1ccc(F)cc1 [Example 29, (R)-1-(4-chloro-4′-fluorobiphenyl-2-ylcarbamoyl)azetidine-2-carboxylic acid]			> 50	0.03
O=C(O)[C@H]1CCN1C(=O)Nc1cc(Cl)c(F)cc1-c1ccccc1 [Example 30, (R)-1-(4-chloro-5-fluorobiphenyl-2-ylcarbamoyl)azetidine-2-carboxylic acid]			40.1	0.02
Cc1cc(-c2ccccc2)c(NC(=O)N2CC[C@@H]2C(=O)O)cc1Cl [Example 31, (R)-1-(4-chloro-5-methylbiphenyl-2-ylcarbamoyl)azetidine-2-carboxylic acid]			5.08	0.03
